Assays:
[1] = target: T1, Peptidyl-prolyl cis-trans isomerase FKBP4 (Homo sapiens, UniProt Q02790); assay: Binding affinity to FKBP52 FK1 domain by competitive fluorescence polarization assay
T1 sequence (Q02790 whole entry): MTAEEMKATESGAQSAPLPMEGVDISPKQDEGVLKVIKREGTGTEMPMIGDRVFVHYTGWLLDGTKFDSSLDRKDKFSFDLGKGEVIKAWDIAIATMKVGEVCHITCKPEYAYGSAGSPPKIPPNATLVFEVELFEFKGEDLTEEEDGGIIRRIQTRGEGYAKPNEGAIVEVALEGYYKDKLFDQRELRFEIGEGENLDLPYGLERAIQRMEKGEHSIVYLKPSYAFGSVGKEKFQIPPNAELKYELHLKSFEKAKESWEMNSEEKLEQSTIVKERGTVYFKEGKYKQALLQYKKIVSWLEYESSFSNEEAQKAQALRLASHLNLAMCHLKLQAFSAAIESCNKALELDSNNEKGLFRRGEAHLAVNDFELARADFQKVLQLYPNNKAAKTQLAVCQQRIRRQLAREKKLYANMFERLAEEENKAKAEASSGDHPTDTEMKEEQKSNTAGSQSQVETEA

[2] = target: Peptidyl-prolyl cis-trans isomerase FKBP1A (Homo sapiens, UniProt P62942); assay: Binding affinity to FKBP12 by competitive fluorescence polarization assay
[3] = target: T2, Peptidyl-prolyl cis-trans isomerase FKBP5 (Homo sapiens, UniProt Q13451); assay: Binding affinity to FKBP51 FK1 domain by competitive fluorescence polarization assay
T2 sequence (Q13451 whole entry): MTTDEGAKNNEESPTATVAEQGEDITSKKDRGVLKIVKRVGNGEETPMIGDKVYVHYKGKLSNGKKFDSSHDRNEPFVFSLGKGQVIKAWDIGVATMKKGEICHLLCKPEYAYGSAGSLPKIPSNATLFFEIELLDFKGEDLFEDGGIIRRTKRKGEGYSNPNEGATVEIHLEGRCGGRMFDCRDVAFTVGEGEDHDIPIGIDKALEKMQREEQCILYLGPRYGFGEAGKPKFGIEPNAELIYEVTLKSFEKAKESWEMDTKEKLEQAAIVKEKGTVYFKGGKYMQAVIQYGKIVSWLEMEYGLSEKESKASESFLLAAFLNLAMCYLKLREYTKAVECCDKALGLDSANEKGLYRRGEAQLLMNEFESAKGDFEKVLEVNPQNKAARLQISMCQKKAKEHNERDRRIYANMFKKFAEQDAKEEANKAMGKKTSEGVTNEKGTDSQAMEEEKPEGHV

Chain of Peptidyl-prolyl cis-trans isomerase FKBP1A (P62942 whole entry, the tested form may be a part): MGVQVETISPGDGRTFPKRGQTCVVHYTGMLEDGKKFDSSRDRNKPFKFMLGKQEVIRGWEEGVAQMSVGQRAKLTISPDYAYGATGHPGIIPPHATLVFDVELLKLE

IC50 ([1]; read-out: IC50) [µM]	IC50 ([2]; read-out: IC50) [µM]	IC50 ([3]; read-out: IC50) [µM]	IC50 [1]	IC50 [2]	IC50 [3]	SMILES
> 100	1.8	–	–	–	–	COc1ccc(CC[C@@H](OC(=O)[C@@H]2CCCCN2S(=O)(=O)c2ccc(-c3ncccn3)cc2)c2cccc(OCC(=O)O)c2)cc1OC
–	1.2	–	–	–	–	COc1ccc(CC[C@@H](OC(=O)[C@@H]2CCCCN2S(=O)(=O)c2cccc(Cl)c2)c2cccc(OCC(=O)O)c2)cc1OC
> 100	10.1	> 100	–	–	–	COc1ccc(CC[C@@H](OC(=O)[C@@H]2CCCCN2S(=O)(=O)c2ccoc2)c2cccc(OCC(=O)O)c2)cc1OC
> 100	9.1	> 100	–	–	–	COc1ccc(CC[C@@H](OC(=O)[C@@H]2CCCCN2S(=O)(=O)c2cccc(-c3ccncn3)c2)c2cccc(OCC(=O)O)c2)cc1OC
84.5	1.09	54	–	–	–	COc1ccc(CC[C@@H](OC(=O)[C@@H]2CCCCN2S(=O)(=O)c2cccc(F)c2)c2cccc(OCC(=O)O)c2)cc1OC
15.7	0.32	15.8	–	–	–	COc1ccc(CC[C@@H](OC(=O)[C@@H]2CCCCN2S(=O)(=O)c2cccc(Br)c2)c2cccc(OCC(=O)O)c2)cc1OC
–	0.8	–	–	–	–	COc1ccc(CC[C@@H](OC(=O)[C@@H]2CCCCN2S(=O)(=O)c2cc(Cl)cc(Cl)c2)c2cccc(OCC(=O)O)c2)cc1OC
> 100	5.1	> 100	–	–	–	COc1ccc(CC[C@@H](OC(=O)[C@@H]2CCCCN2S(=O)(=O)c2cc(C(F)(F)F)cc(C(F)(F)F)c2)c2cccc(OCC(=O)O)c2)cc1OC
–	0.23	–	–	–	–	COc1ccc(CC[C@@H](OC(=O)[C@@H]2CCCCN2S(=O)(=O)c2cc(Cl)c(OC)c(Cl)c2)c2cccc(OCC(=O)O)c2)cc1OC
20.5	1.18	16.1	–	–	–	COc1ccc(CC[C@@H](OC(=O)[C@@H]2CCCCN2S(=O)(=O)c2cc(Cl)c(NC(C)=O)c(Cl)c2)c2cccc(OCC(=O)O)c2)cc1OC
–	1.2	–	–	–	–	COc1ccc(CC[C@@H](OC(=O)[C@@H]2CCCCN2S(=O)(=O)c2ccc3nc(C)sc3c2)c2cccc(OCC(=O)O)c2)cc1OC
–	0.021	–	–	–	–	COc1ccc(CC[C@@H](OC(=O)[C@@H]2CCCCN2S(=O)(=O)c2ccc3[nH]c(=O)sc3c2)c2cccc(OCC(=O)O)c2)cc1OC
> 100	> 100	> 100	–	–	–	COc1ccc(OCCOC(=O)[C@@H]2CCCCN2S(=O)(=O)c2cc(Cl)cc(Cl)c2)cc1OC
> 100	0.2	66.3	–	–	–	COc1ccc(OCCOC(=O)[C@@H]2CCCCN2S(=O)(=O)c2ccc3ncsc3c2)cc1OC
> 50	> 50	> 50	–	–	–	COc1ccc(CC[C@@H](OC(=O)[C@@H]2CCCCN2S(=O)(=O)c2ccc3ncsc3c2)c2cccc(OCCN3CCOCC3)c2)cc1OC
> 50	> 50	> 50	–	–	–	COc1ccc(CC[C@@H](OC(=O)[C@@H]2CCCCN2S(=O)(=O)c2cc(Cl)c(OC)c(Cl)c2)c2cccc(OCCN3CCOCC3)c2)cc1OC
–	0.45	–	–	–	–	COc1ccc(CC[C@@H](OC(=O)[C@@H]2CCCCN2S(=O)(=O)c2cc(Cl)c(NC(C)=O)c(Cl)c2)c2cccc(OCCN3CCOCC3)c2)cc1OC

More lines, now with the values behind:

SMILES	IC50 ([1]; read-out: IC50) [µM]	IC50 ([2]; read-out: IC50) [µM]	IC50 ([3]; read-out: IC50) [µM]	IC50 [1]	IC50 [2]	IC50 [3]
COC(=O)c1cc(C(=O)OC)cc(S(=O)(=O)N2CCCC[C@H]2C(=O)O[C@H](CCc2ccc(OC)c(OC)c2)c2cccc(OCC(=O)O)c2)c1	> 100	4.5	> 100	–	–	–
COc1ccc(CC[C@@H](OC(=O)[C@@H]2CCCCN2S(=O)(=O)c2ccc3ncsc3c2)c2cccc(OCC(=O)O)c2)cc1OC	32.5	1.1	11.6	–	–	–
COc1ccc(CC[C@@H](OC(=O)[C@@H]2CCCCN2S(=O)(=O)c2cc3ccccc3s2)c2cccc(OCC(=O)O)c2)cc1OC	> 100	4.6	–	–	–	–
COc1ccc(CC[C@@H](OC(=O)[C@@H]2CCCCN2S(=O)(=O)c2cccc(C#N)c2)c2cccc(OCC(=O)O)c2)cc1OC	69.9	3.8	28.5	–	–	–
COc1ccc(CC[C@@H](OC(=O)[C@@H]2CCCCN2S(=O)(=O)c2cccc([N+](=O)[O-])c2)c2cccc(OCC(=O)O)c2)cc1OC	> 100	1.9	47.2	–	–	–
COc1ccc(CC[C@@H](OC(=O)[C@@H]2CCCCN2S(=O)(=O)c2cccc(N)c2)c2cccc(OCC(=O)O)c2)cc1OC	> 100	1.9	45.4	–	–	–
COc1ccc(CC[C@@H](OC(=O)[C@@H]2CCCCN2S(=O)(=O)c2cccc(-c3ccnc(C)n3)c2)c2cccc(OCC(=O)O)c2)cc1OC	> 100	8.1	> 100	–	–	–
COc1ccc(CC[C@@H](OC(=O)[C@@H]2CCCCN2S(=O)(=O)c2ccc(Cl)c(Cl)c2)c2cccc(OCC(=O)O)c2)cc1OC	> 100	6.1	> 100	–	–	–
COc1ccc(CC[C@@H](OC(=O)[C@@H]2CCCCN2S(=O)(=O)c2ccc(OC)c(OC)c2)c2cccc(OCC(=O)O)c2)cc1OC	> 100	7.6	> 100	–	–	–
COc1ccc(S(=O)(=O)N2CCCC[C@H]2C(=O)O[C@H](CCc2ccc(OC)c(OC)c2)c2cccc(OCC(=O)O)c2)cc1Cl	40.3	0.6	29.6	–	–	–
COc1ccc(CC[C@@H](OC(=O)[C@@H]2CCCCN2S(=O)(=O)c2cc(F)cc(F)c2)c2cccc(OCC(=O)O)c2)cc1OC	–	1	88.2	–	–	–
COc1ccc(CC[C@@H](OC(=O)[C@@H]2CCCCN2S(=O)(=O)c2cc(Br)cc(C(F)(F)F)c2)c2cccc(OCC(=O)O)c2)cc1OC	> 100	2.4	> 100	–	–	–
COc1ccc(CC[C@@H](OC(=O)[C@@H]2CCCCN2S(=O)(=O)c2cc(Cl)c(O)c(Cl)c2)c2cccc(OCC(=O)O)c2)cc1OC	20.3	0.67	6.2	–	–	–
COc1ccc(CC[C@@H](OC(=O)[C@@H]2CCCCN2S(=O)(=O)c2cc(OC)c(OC)c(C(=O)O)c2)c2cccc(OCC(=O)O)c2)cc1OC	–	–	–	Not Active	Not Active	Not Active
COc1ccc(CC[C@@H](OC(=O)[C@@H]2CCCCN2S(=O)(=O)c2cc3c(c([N+](=O)[O-])c2)OCC3)c2cccc(OCC(=O)O)c2)cc1OC	–	1.5	–	–	–	–
COc1ccc(CC[C@@H](OC(=O)[C@@H]2CCCCN2S(=O)(=O)c2cc(N)c3c(c2)CCO3)c2cccc(OCC(=O)O)c2)cc1OC	> 100	2.57	> 100	–	–	–
COc1ccc(CC[C@@H](OC(=O)[C@@H]2CCCCN2S(=O)(=O)c2ccc3c(c2)CC(=O)N3)c2cccc(OCC(=O)O)c2)cc1OC	> 100	0.66	> 100	–	–	–
COc1ccc(CC[C@@H](OC(=O)[C@@H]2CCCCN2S(=O)(=O)c2ccc3[nH]c(=O)oc3c2)c2cccc(OCC(=O)O)c2)cc1OC	> 100	0.75	> 100	–	–	–
COc1ccc(CC[C@@H](OC(=O)[C@@H]2CCCCN2S(=O)(=O)c2cc(Cl)cc(Cl)c2)c2cccc(OCCN3CCOCC3)c2)cc1OC	> 50	> 50	> 50	–	–	–
COc1ccc(CC[C@@H](OC(=O)[C@@H]2CCCCN2S(=O)(=O)c2cc(Cl)c(O)c(Cl)c2)c2cccc(OCCN3CCOCC3)c2)cc1OC	–	0.115	–	–	–	–
COc1ccc(CC[C@@H](OC(=O)[C@@H]2CCCCN2S(=O)(=O)c2ccc3[nH]c(=O)sc3c2)c2cccc(OCCN3CCOCC3)c2)cc1OC	3.41	0.003	2.03	–	–	–
COc1ccc(CC[C@@H](NC(=O)[C@@H]2CCCCN2S(=O)(=O)c2cc(Cl)c(O)c(Cl)c2)c2cccc(OCC(=O)O)c2)cc1OC	> 100	> 100	> 100	–	–	–
COc1ccc(CC[C@@H](NC(=O)[C@@H]2CCCCN2S(=O)(=O)c2ccc3[nH]c(=O)sc3c2)c2cccc(OCC(=O)O)c2)cc1OC	> 100	1.4	> 100	–	–	–
O=C(OC(CCCc1cccnc1)CCCc1cccnc1)[C@@H]1CCCCN1S(=O)(=O)c1cc(Cl)c(O)c(Cl)c1	15.1	0.87	9.69	–	–	–
CCC(C)(C)C(=O)C(=O)N1CCCC[C@H]1C(=O)O[C@H](CCc1ccc(OC)c(OC)c1)c1cccc(OCC(=O)O)c1	9.37	0.114	6.3	–	–	–

Source: ChEMBL document CHEMBL2057077, “Exploration of pipecolate sulfonamides as binders of the FK506-binding proteins 51 and 52” (J Med Chem, 2012)
